Test results taken from patent US7473682B2, “Angiogenic peptides and uses thereof” (Ramot at Tel Aviv University Ltd., priority 2003, dated 2009).

Legend:
[1] = system: ECs (HUVECs); experiment: FACS binding of FITC-labeled synthetic peptides to ECs; parameters: species or system human; conditions: 6 μg FITC labeled peptide, 10^5 ECs, 2 hours
Method: Fluorescein labeling of synthetic peptides—Fluorescein Isothiocyanate (FTIC, Pierce, Rockford, Ill.) is an amino-reactive probe that reacts in an alkine environment with primary amines to form a stable fluorescent derivative. 12.5 μl of FITC (10 mg/ml) were added per 1 mg of peptide diluted in 0.5 M bicarbonate buffer (pH 9.5) and agitated in the dark for 2 hours. 0.1 ml of 1.5 M hydroxilamine was then added per 1 ml of reaction mixture and agitated for an additional 30 minutes at room temperature. Unbound FITC was removed by dialysis in the presence of PBS.
Peptide binding to ECs—ECs were cultured in M199 supplemented with 10% FCS. For peptide binding assays, the cells were trypsinized and 10^5 cells were suspended in PBS supplemented with 5% FCS and 0.1% sodium azide. Cells were incubated for 2 hours (on ice, in the dark) in the presence of 1-6 μg of FITC-labeled peptides, following which the stained cells were washed twice with PBS. Samples were analyzed by FACS (FACScan, Becton Dickinson, San Jose, Calif., USA). For control, 0.5×10^6 of PBLs were utilized.
FACS analysis of peptide binding to ECs with and without hypoxia treatment—ECs were exposed to hypoxia conditions and then prepared for FACS analysis as described in Example 3, hereinabove. […] Samples were analyzed by Fluorescence Activated Cell Sorter (FACScan Beckton Dickinson, Calif., USA).

[2] = system: rat ischemic hind limb; experiment: Rat ischemic hind-limb model, laser-Doppler blood flow; assay type: in vivo; conditions: 600 μg peptide, days 2, 6, 9 and 13
Method: Rat ischemic hind-limb model and laser-Doppler imager analysis—A rat ischeric hind limb model was used for evaluation of the in vivo potential of angiogenesis induced by the selected synthetic peptides. Ischemia was created in the rat left hind limb by ligation the femoral artery. The right hind limb served as a control. A day after the operation each of the peptides was injected into two sites close to the ligation and one site distal to the ligation. Each rat was treated with each of the peptides in a total amount of 600 μg.
The blood flow was measured using a Laser Doppler Blood Flow analyzer (MoorLDI, Moor Instrument, Wilmington, Del.) at 2, 6, 9 and 13 days after peptides injections. The average perfusion of each limb was computed and blood flow was expressed as the ischemic (left)/control (right) blood flow ratio.

Row | Sequence | Binding to ECs exposed to hypoxia compared with normoxia [1] | Median flux of the ischemic leg/control leg [2]
1 | LLADTTHHRPWT (Phage displayed peptide) [LT] | increased binding | 
2 | QPWLEQAYYSTF (Phage displayed peptide) [QF] |  | 112.5%
3 | SAHGTSTGVPWP (Phage displayed peptide) | increased binding | 
4 | YPHIDSLGHWRR (Phage displayed peptide) [YR] |  | 108.2%
